Measured values as given in patent US5591714A, “Derivatives of A82846” (priority 1994, dated 1997).
In brackets after ≈: the same amount, converted by molar mass.

Legend:
Staphylococcus aureus = assay: In vivo activity, experimentally infected mice (ED50); details: Staphylococcus aureus infection; doses administered subcutaneously to mice 1 and 4 hours postinfection
[1] = system: Enterococcus faecalis 2041; assay: MIC, standard agar-dilution assay; format: cell-based
Experimental: (§1) The formula I compounds have in vitro and in vivo activity against Gram-positive pathogenic bacteria. The MIC's were determined using a standard agar-dilution assays.
^c Formerly Streptococcus faecalis 2041

Streptococcus pneumoniae = assay: In vivo activity, experimentally infected mice (ED50); details: Streptococcus pneumoniae infection; doses administered subcutaneously to mice 1 and 4 hours postinfection
Streptococcus pyogenes = assay: as above; details: Streptococcus pyogenes infection; doses administered subcutaneously to mice 1 and 4 hours postinfection
[2] = system: Streptococcus pneumoniae Park 1; format: cell-based
Experimental: as §1

[3] = system: Staphylococcus aureus S13E; format: cell-based
Experimental: as §1

[4] = system: Streptococcus pyogenes C203; assay: MIC, standard agar-dilution assay; format: cell-based
Experimental: as §1

[5] = system: Haemophilus influenzae C.L.; assay: MIC, standard agar-dilution assay; format: cell-based
Experimental: as §1

Escherichia coli N10 = assay: MIC, standard agar-dilution assay; format: cell-based
Experimental: as §1

[6] = system: Staphylococcus aureus NRRL X1.1; assay: MIC, standard agar-dilution assay; format: cell-based
Experimental: as §1

[7] = system: Staphylococcus epidermidis 222; assay: MIC, standard agar-dilution assay; format: cell-based
Experimental: as §1

[8] = system: Staphylococcus aureus V41; assay: MIC, standard agar-dilution assay; format: cell-based
Experimental: as §1

Escherichia coli TEM = assay: MIC, standard agar-dilution assay; format: cell-based
Experimental: as §1

[9] = system: Staphylococcus epidermidis EPI270; assay: MIC, standard agar-dilution assay; format: cell-based
Experimental: as §1

[10] = system: Haemophilus influenzae 76; assay: MIC, standard agar-dilution assay; format: cell-based
Experimental: as §1

[11] = system: Klebsiella pneumoniae X26; assay: MIC, standard agar-dilution assay; format: cell-based
Experimental: as §1

[12] = system: Staphylococcus aureus X400; assay: MIC, standard agar-dilution assay; format: cell-based
Experimental: as §1

Escherichia coli EC14 = assay: MIC, standard agar-dilution assay; format: cell-based
Experimental: as §1

[13] = system: Klebsiella pneumoniae KAE; assay: MIC, standard agar-dilution assay; format: cell-based
Experimental: as §1

[14] = system: Klebsiella pneumoniae X68; assay: MIC, standard agar-dilution assay; format: cell-based
Experimental: as §1

Enterococcus faecium X66 = assay: MIC, standard agar-dilution assay; format: cell-based
Experimental: as §1
^b Formerly Streptococcus faecium X66

Row | Compound | ED50 (Staphylococcus aureus) [mg/kg/2] | MIC [1] | ED50 (Streptococcus pneumoniae) [mg/kg/2] | ED50 (Streptococcus pyogenes) [mg/kg/2] | MIC [2] | MIC [3] [µg/mL] | MIC [4] | MIC [5] [µg/mL] | MIC (Escherichia coli N10) [µg/mL] | MIC [6] | MIC [7] | MIC [8] | MIC (Escherichia coli TEM) [µg/mL] | MIC [9] | MIC [10] [µg/mL] | MIC [11] [µg/mL] | MIC [12] [µg/mL] | MIC (Escherichia coli EC14) [µg/mL] | MIC [13] [µg/mL] | MIC [14] [µg/mL] | further results
1 | CN[C@H](CC(C)C)C(=O)N[C@H]1C(=O)N[C@@H](CC(N)=O)C(=O)N[C@H]2C(=O)N[C@H]3C(=O)N[C@H](C(=O)N[C@H](C(=O)O)c4cc(O)cc(O)c4-c4cc3ccc4O)[C@H](O[C@H]3C[C@](C)(N)[C@@H](O)[C@H](C)O3)c3ccc(cc3)Oc3cc2cc(c3O[C@@H]2O[C@H](CO)[C@@H](O)[C@H](O)[C@H]2O[C@H]2C[C@](C)(NCc3ccc(Br)cc3)[C@@H](O)[C@H](C)O2)Oc2ccc(cc2Cl)[C@H]1O [Compound 18] | 1.74 | 1 µg/mL (≈ 0.579 µM) | 0.25 | 0.15 | .25 µg/mL (≈ 0.145 µM) | 1 (≈ 0.579 µM) | .125 µg/mL (≈ 0.0724 µM) | > 128 | > 128 | 1 µg/mL (≈ 0.579 µM) | .5 µg/mL (≈ 0.29 µM) | 1 µg/mL (≈ 0.579 µM) | > 128 | 1 µg/mL (≈ 0.579 µM) | > 128 | > 128 | 1 (≈ 0.579 µM) | > 128 | > 128 | > 128 | MIC (Enterococcus faecium X66): 1 µg/mL (≈ 0.579 µM)
2 | CN[C@H](CC(C)C)C(=O)N[C@H]1C(=O)N[C@@H](CC(N)=O)C(=O)N[C@H]2C(=O)N[C@H]3C(=O)N[C@H](C(=O)N[C@H](C(=O)O)c4cc(O)cc(O)c4-c4cc3ccc4O)[C@H](O[C@H]3C[C@](C)(N)[C@@H](O)[C@H](C)O3)c3ccc(cc3)Oc3cc2cc(c3O[C@@H]2O[C@H](CO)[C@@H](O)[C@H](O)[C@H]2O[C@H]2C[C@](C)(NCCc3ccccc3)[C@@H](O)[C@H](C)O2)Oc2ccc(cc2Cl)[C@H]1O [Compound 24] | 0.72 | .5 µg/mL (≈ 0.301 µM) | 0.25 | 0.09 | .25 µg/mL (≈ 0.15 µM) | 1 (≈ 0.602 µM) | .25 µg/mL (≈ 0.15 µM) | > 128 | > 128 | .5 µg/mL (≈ 0.301 µM) | .5 µg/mL (≈ 0.301 µM) | .5 µg/mL (≈ 0.301 µM) | > 128 | .5 µg/mL (≈ 0.301 µM) | > 128 | > 128 | 1 (≈ 0.602 µM) | > 128 | > 128 | > 128 | MIC (Enterococcus faecium X66): .5 µg/mL (≈ 0.301 µM)
3 | CNC(CC(C)C)C(=O)NC1C(=O)NC(CC(N)=O)C(=O)NC2C(=O)NC3C(=O)NC(C(=O)NC(C(=O)O)c4cc(O)cc(O)c4-c4cc3ccc4O)C(OC3CC(C)(N)C(O)C(C)O3)c3ccc(c(Cl)c3)Oc3cc2cc(c3OC2OC(CO)C(O)C(O)C2OC2CC(C)(NCc3ccccc3Cl)C(O)C(C)O2)Oc2ccc(cc2Cl)C1O (stereo not drawn) [Compound 62] | 0.77 | .5 µg/mL (≈ 0.291 µM) | 0.17 | 0.20 | .125 µg/mL (≈ 0.0728 µM) | 1 (≈ 0.582 µM) | .125 µg/mL (≈ 0.0728 µM) | > 128 | > 128 | .5 µg/mL (≈ 0.291 µM) | .5 µg/mL (≈ 0.291 µM) | .5 µg/mL (≈ 0.291 µM) | > 128 | 1 µg/mL (≈ 0.582 µM) | > 128 | > 128 | 1 (≈ 0.582 µM) | > 128 | > 128 | > 128 | MIC (Enterococcus faecium X66): .25 µg/mL (≈ 0.146 µM)
